Each structure is given as a SMILES string. A value given as a limit tells only on which side of the number the result lay.

For one test, the target named is Human LDHA (Homo sapiens (Human), UniProt P00338). The test is described as follows: human LDHA primary biochemical assay (resazurin/diaphorase coupled, fluorescence). As to conditions: LDHA inhibitory activity, activity level based on IC50 (Table 7). An excerpt: Test compounds were placed in a Greiner Bio-One (Monroe, N.C.) 1536-well black solid bottom assay plate. 200 millimolar (mM) Tris HCl, pH 7.4, 100 micromolar […] EDTA and 0.01% TWEEN-20™, final concentration, was used as the assay buffer. The LDHA reagent was 2 nanomolar (nM) Human LDHA (Meridian Life Science, Inc., Memphis, Tenn.), final concentration, in assay buffer.
Background: Resazurin is reduced to fluorescent resorufin, in cell work by metabolically active cells.
Molecule `CCc1cccc(-c2cc(-c3nn(-c4nc(C(=O)O)cs4)cc3Cc3ccc(S(N)(=O)=O)cc3)ccc2C)c1` [Compound 488, 2-(3-(3′-ethyl-6-methyl-[1,1′-biphenyl]-3-yl)-4-(4-sulfamoylbenzyl)-1H-pyrazol-1-yl)thiazole-4-carboxylic acid] had an IC50 of 100 to 1000 nM. On the same count and under the same terms, for `NS(=O)(=O)c1ccc(Cc2cn(-c3nc(C(=O)O)cs3)nc2-c2ccc(F)c(-c3cccc(Cl)c3)c2)cc1` [Compound 457, 2-(3-(3′-chloro-6-fluoro-[1,1′-biphenyl]-3-yl)-4-(4-sulfamoylbenzyl)-1H-pyrazol-1-yl)thiazole-4-carboxylic acid] the value was under 100 nM; for `COc1cccc(-c2cccc(-c3nn(-c4nc(C(=O)O)cs4)cc3Cc3ccc(S(N)(=O)=O)cc3)c2)c1` [Compound 521, 2-(3-(3′-methoxy-[1,1′-biphenyl]-3-yl)-4-(4-sulfamoylbenzyl)-1H-pyrazol-1-yl)thiazole-4-carboxylic acid], under 100 nM.

`Cc1ccc(-c2cccc(-c3nn(-c4nc(C(=O)O)cs4)c(CC4CC4)c3Cc3ccc(S(N)(=O)=O)cc3F)c2)cc1` [Compound 363] yielded an IC50 of under 100 nM.

On to `CC(C)=Cc1cc(-c2nn(-c3nc(C(=O)O)cs3)c(CC3CC3)c2Cc2ccc(S(N)(=O)=O)c(F)c2)ccc1F` [Compound 530, 2-(5-(cyclopropylmethyl)-3-(4-fluoro-3-(2-methylprop-1-en-1-yl)phenyl)-4-(3-fluoro-4-sulfamoylbenzyl)-1H-pyrazol-1-yl)thiazole-4-carboxylic acid], for which the half-inhibitory concentration (IC50) is under 100 nM. In turn, `Cc1oc(=O)oc1COC(=O)c1csc(-n2nc(-c3ccc(F)c(C#CC4CCCC4)c3)c(Cc3ccc(S(N)(=O)=O)c(F)c3)c2CC2CC2)n1` [Compound 441] showed an IC50 of over 57000 nM. `COc1cccc(-c2cccc(-c3nn(-c4nc(C(=O)O)cs4)c(C4CC4)c3Cc3ccc(S(N)(=O)=O)cc3F)c2)c1` [Compound 361]: the IC50 was under 100 nM.

Take `Cc1ccc(-c2cc(-c3nn(-c4nc(C(=O)O)cs4)cc3Cc3ccc(S(N)(=O)=O)cc3)ccc2F)cc1C` [Compound 516, 2-(3-(6-fluoro-3′,4′-dimethyl-[1,1′-biphenyl]-3-yl)-4-(4-sulfamoylbenzyl)-1H-pyrazol-1-yl)thiazole-4-carboxylic acid]: the IC50 lay in the range of 100 to 1000 nM. Same read-out and setting: for `COc1cccc(-c2cccc(-c3c(Cc4ccc(S(N)(=O)=O)cc4F)c(C4CC4)nn3-c3nc(C(=O)O)cs3)c2)c1` [Compound 360] the value was 1000 to 57000 nM. In turn, `Cc1ccc(-c2nn(-c3nc(C(=O)O)cs3)cc2Cc2ccc(S(N)(=O)=O)cc2)cc1-c1ccncc1` [Compound 490, 2-(3-(4-methyl-3-(pyridin-4-yl)phenyl)-4-(4-sulfamoylbenzyl)-1H-pyrazol-1-yl)thiazole-4-carboxylic acid] returned a half-maximal inhibitory concentration (IC50) of 100 to 1000 nM.

For `CCOC(=O)c1csc(-n2nc(-c3ccc(F)c(-c4ccc(C)cc4)c3)c(Cc3ccc(S(N)(=O)=O)c(F)c3)c2CC2CC2)n1` [Compound 343], the IC50 was 1000 to 57000 nM. The same measure, in the same setting: for `NS(=O)(=O)c1ccc(Cc2cn(-c3nc(C(=O)O)cs3)nc2-c2cccc(OCC3CCCO3)c2)cc1` (centres unmarked) [Compound 463, 2-(4-(4-sulfamoylbenzyl)-3-(3-((tetrahydrofuran-2-yl)methoxy)phenyl)-1H-pyrazol-1-yl)thiazole-4-carboxylic acid] the value was under 100 nM. Molecule `NS(=O)(=O)c1ccc(Cc2c(-c3cccnc3)nn(-c3nc(C(=O)O)cs3)c2O)cc1` [Compound 453, 2-(5-hydroxy-3-(pyridin-3-yl)-4-(4-sulfamoylbenzyl)-1H-pyrazol-1-yl)thiazole-4-carboxylic acid] registered an IC50 of 1000 to 57000 nM.

The same test, now with this note: LDHA inhibitory activity, assay of Example 1; activity level classes.
As for `N#Cc1c(Cc2ccc(S(N)(=O)=O)cc2)c(-c2ccccc2)nn1-c1nc(C(=O)O)cs1` [Compound 50], the IC50 was under 100 nM. Still for that read-out and setting: to `NS(=O)(=O)c1ccc(Oc2c(-c3ccccc3)nn(-c3nc(C(=O)O)cs3)c2C2CC2)cc1` [Compound 166, 2-(5-cyclopropyl-3-phenyl-4-(4-sulfamoylphenoxy)-1H-pyrazol-1-yl)thiazole-4-carboxylic acid] belongs under 100 nM; to `NS(=O)(=O)c1ccc(Cc2c(-c3ccc(F)c(F)c3)nn(-c3nc(C(=O)O)cs3)c2C(F)(F)F)cc1` [Compound 39, 2-(3-(3,4-difluorophenyl)-4-(4-sulfamoylbenzyl)-5-(trifluoromethyl)-1H-pyrazol-1-yl)thiazole-4-carboxylic acid], under 100 nM. The same measure, in the same setting: for `O=C(O)c1csc(-n2nc(-c3ccc(F)c(F)c3)cc2C(=O)O)n1` [Compound 71, 2-(5-carboxy-3-(3,4-difluorophenyl)-1H-pyrazol-1-yl)thiazole-4-carboxylic acid] the value was over 57000 nM; for `COc1cc(-c2nn(-c3nc(C(=O)O)cs3)c(CC3CC3)c2Cc2ccc(S(N)(=O)=O)cc2)ccc1F` [Compound 278], under 100 nM; for `CCOC(=O)c1csc(-n2nc(-c3ccc(F)c(-c4cccc(OC)c4)c3)c(Cc3ccc(S(N)(=O)=O)cc3F)c2CC2CC2)n1` [Compound 320], over 57000 nM. The same measure, in the same setting: for `Nc1c(Cc2ccc(S(N)(=O)=O)cc2)c(-c2ccccc2)nn1-c1ccc(=O)[nH]n1` [Compound 128, 4-((5-amino-1-(6-oxo-1,6-dihydropyridazin-3-yl)-3-phenyl-1H-pyrazol-4-yl)methyl)benzenesulfonamide] the value was over 57000 nM; for `CCOC(=O)c1csc(-n2nc(-c3ccccc3)c(Cc3ccc(S(N)(=O)=O)cc3)c2C2CC2)n1` [Compound 272], over 57000 nM. As to `O=C(O)c1csc(-n2cc(-c3cccc(-c4ccccc4)c3)c3cccnc32)n1` [Compound 29, 2-(3-([1,1′-biphenyl]-3-yl)-1H-pyrrolo[2,3-b]pyridin-1-yl)thiazole-4-carboxylic acid], the IC50 is over 57000 nM.

Take `COc1c(Cc2ccc(S(N)(=O)=O)cc2)c(-c2ccc(F)c(F)c2)nn1-c1nc(C(=O)O)cs1` [Compound 60, 2-(3-(3,4-difluorophenyl)-5-methoxy-4-(4-sulfamoylbenzyl)-1H-pyrazol-1-yl)thiazole-4-carboxylic acid]: the half-inhibitory concentration (IC50) lay within 100 to 1000 nM. In turn, `CS(=O)(=O)c1ccc(Cc2cn(-c3nc(C(=O)O)cs3)nc2-c2ccccc2)cc1` [Compound 27, 2-(4-(4-(methylsulfonyl)benzyl)-3-phenyl-1H-pyrazol-1-yl)thiazole-4-carboxylic acid] came in with an IC50 of over 57000 nM.

`O=C(O)c1csc(-n2nc(-c3cc(F)ccc3F)cc2O)n1` [Compound 102, 2-(3-(2,5-difluorophenyl)-5-hydroxy-1H-pyrazol-1-yl)thiazole-4-carboxylic acid] returned an IC50 of over 57000 nM. For the molecule `N[S+](=O)([O-])c1ccc(Cc2c(-c3cccc(-c4ccc(F)cc4)c3)nn(-c3nc(C(=O)O)cs3)c2C(F)(F)F)cc1` [Compound 312], the IC50 is under 100 nM. Regarding `NS(=O)(=O)c1ccc(Cc2c(-c3ccc(F)c(-c4ccc(F)cc4)c3)nn(-c3nc(C(=O)O)cs3)c2C(F)(F)F)cc1` [Compound 240], the IC50 was under 100 nM. `NS(=O)(=O)c1ccc(Cc2c(-c3ccc(F)c(-c4cccc(F)c4)c3)nn(-c3nc(C(=O)O)cs3)c2C(F)(F)F)cc1` [Compound 241] displayed an IC50 of under 100 nM.

Staying with this test, now noted: read-out: Inhibitory activity IC50.
In the case of `NS(=O)(=O)c1ccc(Cc2c(-c3ccccc3)nn(-c3nc(C(=O)O)cs3)c2-c2ccncc2)cc1` [Compound 156, 2-(3-phenyl-5-(pyridin-4-yl)-4-(4-sulfamoylbenzyl)-1H-pyrazol-1-yl)thiazole-4-carboxylic acid], the IC50 was in the range of 1000 to 57000 nM. In the case of `N[S+](=O)([O-])c1ccc(Cc2c(C3(C(F)(F)F)CC3)nn(-c3nc(C(=O)O)cs3)c2-c2cccc(-c3ccccc3)c2)cc1F` [Compound 301], the half-maximal inhibitory concentration (IC50) fell in the range of 1000 to 57000 nM.

For `CCOC(=O)c1csc(-n2cc(Nc3ccc(S(N)(=O)=O)cc3)c(-c3cccc(-c4ccccc4)c3)n2)n1` [Compound 162, ethyl 2-(3-([1,1′-biphenyl]-3-yl)-4-((4-sulfamoylphenyl)amino)-1H-pyrazol-1-yl)thiazole-4-carboxylate], the IC50 was in the range of 1000 to 57000 nM. With `NS(=O)(=O)N1CCN(Cc2cn(-c3nc(C(=O)O)cs3)nc2-c2ccccc2)CC1` [Compound 90, 2-(3-phenyl-4-((4-sulfamoylpiperazin-1-yl)methyl)-1H-pyrazol-1-yl)thiazole-4-carboxylic acid], the IC50 fell in the range of 1000 to 57000 nM. Same read-out and setting: to `NS(=O)(=O)c1ccc(Cc2c(-c3ccccc3)nn(-c3nc(C(=O)O)cs3)c2-c2ccccc2)cc1` [Compound 155, 2-(3,5-diphenyl-4-(4-sulfamoylbenzyl)-1H-pyrazol-1-yl)thiazole-4-carboxylic acid] belongs under 100 nM. On the same count and under the same terms, to `Cc1ccc(-c2cccc(-c3c(Cc4ccc([S+](N)(=O)[O-])c(F)c4)c(CC4CC4)nn3-c3nc(C(=O)O)cs3)c2)cc1` [Compound 286] belongs 1000 to 57000 nM; to `NS(=O)(=O)c1ccc(Oc2c(-c3ccccc3)nn(-c3nc(C(=O)O)cs3)c2O)cc1` [Compound 24, 2-(5-hydroxy-3-phenyl-4-(4-sulfamoylphenoxy)-1H-pyrazol-1-yl)thiazole-4-carboxylic acid], 100 to 1000 nM; to `NS(=O)(=O)c1ccc(Cc2c(-c3cccc(-c4ccccc4)c3)nn(-c3nc(-c4nnn[nH]4)cs3)c2O)cc1` [Compound 72, 4-((1-(4-(1H-tetrazol-5-yl)thiazol-2-yl)-3-([1,1′-biphenyl]-3-yl)-5-hydroxy-1H-pyrazol-4-yl)methyl)benzenesulfonamide], 1000 to 57000 nM.

In the case of `NS(=O)(=O)c1ccc(Cc2cn(-c3nc(C(=O)O)cs3)c3ccc(CN4CCOCC4)cc23)cc1` [Compound 32, 2-(5-(morpholinomethyl)-3-(4-sulfamoylbenzyl)-1H-indol-1-yl)thiazole-4-carboxylic acid], the IC50 lay within 1000 to 57000 nM. Still for that read-out and setting: to `O=C(O)c1csc(-n2nc(-c3cccc(-c4ccccc4F)c3)cc2O)n1` [Compound 63, 2-(3-(2′-fluoro-[1,1′-biphenyl]-3-yl)-5-hydroxy-1H-pyrazol-1-yl)thiazole-4-carboxylic acid] belongs over 57000 nM.

What is called IC50 is the concentration at which inhibition is half-maximal.

Values taken from patent publication US10961200B2, “Small molecule inhibitors of lactate dehydrogenase and methods of use thereof” (THE UNITED STATES OF AMERICA, AS REPRESENTED BY THE …, priority 2014, dated 2021).
